# Values quoted from earlier work in patent US20080146525A1 (priority 2006, published 2008).
# What was measured:
# [1] = tested on: rats
# [2] = animal models and humans
# [3] = administered orally
# [4] = healthy adolescents
# [5] = tested on: extra-cellular acetylcholine and dopamine levels; conditions: versus compositions commonly used to treat Alzheimer's disease; rats
# [6] = tested on: nerve growth factor
# [7] = tested on: neurotransmitters; conditions: humans
compound,measurement,setting,value
CC(=C(CCOC(=O)C(C)C)SSC(CCOC(=O)C(C)C)=C(C)N(C=O)Cc1cnc(C)nc1N)N(C=O)Cc1cnc(C)nc1N (stereo in doubt) [Sulbutiamine],memory effect,[1],memory enhancing effects
C/C=C1\[C@H]2C=C(C)C[C@]1(N)c1ccc(=O)[nH]c1C2 [Huperzine-A],effect on memory deficits,[2],improves memory deficits
same,bioavailability,[3],good bioavailability
same,memory and learning,[4],improve memory and learning
same,ability to increase extra-cellular acetylcholine and dopamine levels,[5],greater ability to increase extra-cellular acetylcholine and dopamine levels
same,amount of nerve growth factor,[6],increase the amount of nerve growth factor
N[C@@H](Cc1ccc(O)cc1)C(=O)O [Tyrosine],neurotransmitters after oral administration,[7],increased of neurotransmitters
